Reference: US20240352402A1, “ENGINEERED BACTERIA FOR BIOSYNTHESIS OF PEPTIDE-BASED QUORUM SENSING INHIBITORS” (Wisconsin Alumni Research Foundation, priority 2023, published 2024)

Tested on: S. aureus agr quorum sensing system (agr specificity groups I, II, III and IV)
Assay: Staphylococcus aureus agr reporter (antagonism) assay with pDB59 YFP reporter strains
Assay type: cell-based
Conditions: high concentrations, WT supernatant as vehicle control
Description: Supernatant samples were lyophilized in a FreeZone Freeze Dryer (Labconco). Fluorescence (EX 500 nm/EM 540 nm) and OD600 were read on a Synergy™ 2 plater reader (BioTek). Data was analyzed using Prism 9 software (GraphPad by Dotmatics).
In both P. megaterium and B. subtilis strains produced in Example 1, AIP production was induced by diluting overnight cultures 1:100 in LB containing 1% xylose. After 8 hours the cultures were centrifuged, and the supernatant was purified with a 0.22 μm filter. The supernatant was then lyophilized and reconstituted in sterile milli-Q water at 10× the original concentration.
Groups I-IV S. aureus strains containing the pDB59 plasmid were used to conduct agr antagonism assays. Assays were conducted as previously described,^1 with the following adjustments: 10×WT P. megaterium or B. subtilis supernatant was used as a vehicle control instead of DMSO and 20 μl of sample/vehicle control and 180 μl of 1:50 overnight S. aureus in brain heart infusion (BHI) growth medium was added to each well for inducible strains P. megaterium (FIG. 2) and B. subtilis (FIG. 3) from Example 1 and constitutive strain B. subtilis (FIG. 5) from Example 2.

With AIP-III D4A the “inhibition of agr activity in reporter assay” value (lyophilized B. subtilis supernatant (10x), n=9, FIG. 3) was “inhibit agr” and the “inhibition of agr activity in reporter assay” value (lyophilized P. megaterium supernatant (10x), n=3, FIG. 2) was “inhibit agr”.
